# Measurements from patent publication US20260130894A1, “COMPOSITION COMPRISING ISOQUINOLINE DERIVATIVE AS ACTIVE INGREDIENT FOR PREVENTION OR TREATMENT OF PARKINSON'S DISEASE” (ALTMEDICAL CO., LTD., priority 2022, published 2026).
# What was measured:
# BEAS-2B cell line = assay: Mitophagy activity in BEAS-2B cells expressing mt-Keima (FACS, confocal microscope, mito-YFP); format: cell-based, human; details: BEAS-2B mt-Keima (FIG. 5)
# Procedure: To analyze the mitophagy-promoting activity effect of the CD1-012 synthesized in the Example 1, the BEAS-2B cell line, which is a human normal lung cell line, was induced to express the mt-Keima fluorescent protein. Following this, the CD1-012 (15 μM) and the compound of Comparative Example 1, CCCP (10 μM), were treated for 24 hours. After the treatment, the mitophagy activity of each sample was measured, and the results were represented in FIGS. 1A to 1C.
# Specifically, FIG. 1A represents the analysis results using flow cytometry (FACS) (treatment of CD1-012 at 15 μM for 24 hours), FIG. 1B represents the analysis results using a confocal microscope (treatment of CD1-012 at 15 μM for 18 hours), and FIG. 1C represents the measurement results of the quantitative changes in the mitochondria using a fluorescent protein, mito-YFP, which includes a targeting sequence to transport protein to the mitochondria (treatment of CD1-012 at 20 μM for 24 hours).
# It was confirmed whether CD1-012 synthesized in Example 1 promotes mitophagy activity in a concentration- and time-dependent manner. To this end, the CD1-012 was treated at various concentrations or at a fixed concentration (15 μM) for different treatment durations in the BEAS-2B cell line expressing mt-Keima, and mitophagy activity was measured using a flow cytometer.
# It was confirmed whether CD1-012 synthesized in Example 1 specifically increases only mitophagy activity. To this end, the BEAS-2B cell line expressing mt-Keima was treated with CD1-012 (15 μM) or Comparative Example 1 (CCCP, 10 μM) for 18 hours, and mitophagy activity was analyzed using a confocal microscope. Additionally, to measure autophagy activity, the BEAS-2B cell line expressing Keima fluorescent protein was incubated in Hanks' balanced salt solution (HBSS) for 3 hours to induce a starvation condition (starv.), and the results were compared with samples treated with CD1-012 (15 μM) for 18 hours using a confocal microscope.
# To this end, the human normal lung cell line BEAS-2B, expressing mt-Keima fluorescent protein, was treated with CD1-012, Comparative Example 2 (palmatine), or Comparative Example 3 (berberine) at various concentrations, and the mitophagy-inducing activity of each sample was compared.
# [1] = tested on: mitochondrial membrane potential; assay: Mitochondrial membrane potential, TMRM assay; format: cell-based; details: CD1-012 10 μM or 15 μM, CCCP 10 μM, 24 hours (FIG. 6)
# Procedure: (§1) It was confirmed whether the isoquinoline derivative according to the present invention induces mitochondrial dysfunction, similar to CCCP. To this end, the CD1-012 (10 μM or 15 μM) and CCCP (10 μM) were treated for 24 hours, and the mitochondrial membrane potential and mitochondrial reactive oxygen species (ROS) levels in each sample were analyzed. Mitochondrial membrane potential was analyzed using the TMRM (tetramethylrhodamine methyl ester) assay, and mitochondrial ROS levels were analyzed using the MitoSOX assay.
# [2] = tested on: mitochondrial reactive oxygen species (ROS); assay: Mitochondrial reactive oxygen species, MitoSOX assay; format: cell-based; details: CD1-012 10 μM or 15 μM, CCCP 10 μM, 24 hours (FIG. 6)
# Procedure: as §1
# [3] = tested on: BEAS-2B cell line, in which PINK1 was knocked down; assay: Mitophagy activity in PINK1 knockdown (shPINK1) BEAS-2B cells (FACS); format: cell-based, human; details: CCCP 10 μM, CD1-012 15 μM, 18 hours (FIG. 7)
# Source text: In this example, it was confirmed whether the mitophagy activation function of the isoquinoline derivative according to the present invention is dependent on the PINK1-Parkin pathway. […]
# In the following example, it was confirmed whether the novel isoquinoline derivative according to the present invention has a therapeutic effect of preventing or improving Parkinson's disease. Most of all, it was confirmed whether the treatment with the isoquinoline derivative improves mitochondrial dysfunction of a Parkinson's disease cell model. To this end, first, the induction of mitophagy by CD1-012 was verified. […] In addition, to analyze whether the mitophagy-promoting activity of CD1-012 is dependent on PINK1, PINK1 expression was inhibited (using shPNIK1) in BEAS-2B cells, which is a human normal lung cell line expressing a mitochondrial fluorescent protein, and mitophagy activity was analyzed by flow cytometry (FACS).
SMILES,concentration at which mitophagy activity reached its maximum (BEAS-2B cell line) [µM],mitochondrial membrane potential [1],mitochondrial ROS levels [2],mitophagy activation in PINK1 knockdown cell line (shPINK1) compared to control cell line (shNT) [3]
"COc1ccc2cc3[n+](cc2c1OC)CCc1cc2c(cc1-3)OCO2 [berberine, Berberine, reference compound]",80,–,–,–
"N#CC(C#N)=NNc1cccc(Cl)c1 [CCCP, Carbonyl cyanide 3-chlorophenylhydrazone, reference compound]",–,significantly reduced,significantly increased,significantly decreased
"COc1cc2c(cc1OC)-c1cc3ccc(OC)c(OC)c3c[n+]1CC2 [palmatine, Palmatine, reference compound]",400,–,–,–
